# Values quoted from earlier work in patent US11517624B2, “Pharmaceutical composition for the parenteral administration of ultrashort-effective β-adrenoreceptor antagonists” (AOP ORPHAN PHARMACEUTICALS AG, priority 2007, dated 2022).
compound,measurement,value
COCCc1ccc(OCC(O)CNC(C)C)cc1 (stereo not shown) [metoprolol],elimination half-life t1/2,1.5 h
